# Source: publication PMC12876990, “Targeting secreted PLA2 interactions with EGFR and vimentin to arrest prostate tumour growth” (Cell Death & Disease, 2025)
# Peptide text beside a SMILES is read from it.
# Assays:
# [1] = target: T1, hGIIA/vimentin interaction (Homo sapiens, UniProt P08670); experiment: Enzyme immunoassay of hGIIA binding to vimentin coil 2; details: 0.1-100 µM
# T1 construct: Purified vimentin fragments (full length or coil 2) were seeded to a 96-well microplate at 15 μg/mL; hGIIA purified in house from conditioned medium of CHO cell line 2B1
# Protocol: Prior to assay, hGIIA antibody 4A1 was conjugated to alkaline phosphatase (4A1-AP), produced using the lightning-link conjugation kit (ab102850, Abcam) as per the manufacturer’s instructions.
# Purified vimentin fragments (full length or coil 2) were seeded to a 96-well microplate at 15 μg/mL with a 100 μL/well volume. After an overnight incubation at 4 °C, the plate was emptied. Each well was then blocked overnight at 4 °C with 200 μL of 1% BSA in PBS. The plate was emptied and washed with PBST (PBS + 0.05% Tween20). hGIIA solution of 100 ng/mL in PBS with 0.1% BSA was prepared with and without inhibitors c2, Withaferin A and LY311727 in DMSO with concentrations 0.1-100 µM. hGIIA working solution with 0.4% DMSO served as a positive control and PBS with 0.1% BSA served as a negative control. A 100 μL volume of each prepared hGIIA-inhibitor mixture was added to wells in triplicate and incubated at 37 °C for two hours. The plate was washed twice with PBST, then incubated with the 4A1-AP conjugate at 1 μg/mL 0.1% BSA in PBS and incubated for one hour at 37 °C. Plates were then emptied and washed three times with PBST, followed by washing twice with carbonate buffer (8 mM Na2CO3, 36 mM NaHCO3, 2 mM MgCl2, pH 9.8), before incubation with AP substrate p-nitro-phenyl phosphate (PNPP) powder at 1 mg/mL concentration in carbonate buffer. The plate was incubated at 37 °C for 60 mins then absorbance was read at 405 nm by a Spectramax M2 plate reader. All washes were a 200 µL/well volume.
# [2] = Pharmacokinetics of tritiated cF and c2 in BALB/c mice; assay type: in vivo
# Protocol: All animal studies were performed according to the guidelines for the ethical use of animals published by the National Health and Medical Research Council of Australia. Mouse pharmacokinetic studies were conducted with approval from the Garvan Institute Animal Ethics Committee (approval #02/21). cF and c2 were radioactively labelled with tritium by catalytic saturation of peptide analogues containing dehydroleucine (Sibtech Inc.), yielding high specific activity (50–60 Ci/mmol) peptides. Their identity was confirmed by three separate analytical methods prior to delivery. Mice (BALB/c, n = 4 per timepoint) were administered a single dose of peptide by the routes and times indicated. Animals were then exsanguinated by cardiac puncture under halothane anaesthesia followed by cervical dislocation. Tissues and plasma were stored at −80 °C prior to analysis. For plasma, a known volume of plasma was added to liquid scintillant (Ultima Gold, Perkin Elmer). For tissues, a known amount of tissue (50–100 mg) was incubated in NaOH (1 mL, 1 M) overnight at room temperature. The solutions were then bleached with disodium EDTA (100 µl, 0.1%) and hydrogen peroxide (300 µl, 30%) and incubated at 50 °C for one hour. The peptide content of plasma and tissues was determined by liquid scintillation counting. The stability of the peptides following administration to animals was evaluated by thin-layer chromatography of tissue-extracted peptide relative to peptide prior to injection (Fig. S2c).
# [3] = Toxicity and serum enzyme levels in PCa xenograft model mice; assay type: in vivo
# Protocol: Fig. 1 Derived from the structure of hGIIA, cF and c2 are orally absorbed, cell permeable and non-toxic. a Structure of hGIIA showing disulphide bonds (yellow) and the location of the peptide sequence ^70FLSYK^74 (cyan), which was cyclised to produce pentapeptide cF, then modified to produce c2. b Plasma concentrations of tritiated cF (red) and c2 (blue) following subcutaneous (sc) administration (circles) or oral (po) administration (squares) at 5 mg/kg to BALB/c mice (mean ± SE, n = 4 per time point). Tissue concentrations of c cF and d c2 following sc administration determined in the liver (blue) and kidney (brown) (mean ± SE). Dashed lines indicate estimated background levels of tritium in tissues due to tissue blood content (10% of peak plasma concentration). e–i Following po administration of c2 at 100 mg/kg to male rats (n = 5 per group), levels of c2 were measured in e plasma, f kidney, g faeces, h urine and i liver at timepoints indicated via LCMS/MS (mean ± SE). j Serum enzyme levels of markers of kidney function (creatinine), liver damage (AST and ALT) and heart damage (CK) in PCa xenograft model mice in response to treatment with vehicle (po, 3 x weekly for 6.1 ± 1.6 weeks), cF (10 mg/kg, po, 3 x weekly for 5.4 ± 0.9 weeks) or c2 (10 mg/kg, po, 3 x weekly for 4.8 ± 0.8 weeks) (n = 4, mean ± SE). Data were obtained by the South Eastern Area Laboratory Services Pathology Laboratory at Prince of Wales Hospital, Randwick, Australia. k PCa cell lines LNCaP, PC-3, and DU145 cells incubated with 100 µM c2 (green) for 24 hours with DAPI (blue), scale bar 10 µm (representative cells of n = 3 biological replicates, 5 cells per replicate).
# A key failing of previous enzymatic inhibitors of hGIIA was toxicity, resulting in increased incidence of myocardial infarction in a phase III clinical trial. Thus, the toxicity profile of novel hGIIA inhibitors is critically important in evaluating new inhibitors. […] Extensive histopathology was performed on all animals in the control and high dose groups sacrificed on day 29, with no difference observed between the treated groups and the vehicle control group by any measure. […] In light of the toxicity associated with the myocardial infarction study, data from this c2 toxicity study relevant to heart toxicity are shown in Table 1. Heart wet weight was not affected by either low or high dose relative to vehicle, indicating the compound has no significant pro-hypertrophy effect at these doses. The lack of effect of c2 on gross necropsy or histopathology scores also supports the preclinical safety of the compound in the heart. Importantly, c2 has no effect on serum potassium levels or the Na/K ratio, since hypokalemia (low potassium) is highly arrythmogenic. […] It is of interest also that serum alanine transaminase is unaffected by c2 at the doses tested, since this marker was raised three-fold over the normal range in 6.3-fold more patients on varespladib than placebo in the VISTA acute coronary syndrome trial of this sPLA2 inhibitor [13].
# [4] = tested on: LNCaP-luc xenograft tumours; experiment: Androgen-sensitive xenograft model; assay type: in vivo, BALB/c nu/nu mice; details: cF 2 mg/kg po daily
# Protocol: BALB/c nu/nu mice (which express murine hGIIA) (n = 13 per group) were injected subcutaneously with 1 × 10^6 luciferase-tagged LNCaP cells (LNCaP-luc) in RPMI 5% FBS/Matrigel (1:1). Subcutaneous tumours (> 65.5 mm^3), in mice randomised to […], were treated by gavage with either vehicle (saline, 1% dimethylformamide (DMF), po, daily) cF (2 mg/kg po, daily) or c2 (0.1 mg/kg, thrice weekly). Mouse weight and tumour diameter, ((d1) and at 90 degrees to d1 (d2) measured with calipers) were recorded twice weekly. Diameter measurements were used to calculate tumour volume; Vol. = π/6 (d1.d2)^3/2, with treatments blinded to experimentalists. Animals were treated for 8-10 weeks unless culled due to tumour volume reaching 15 x 15 mm (1768 mm^3). End of study plasma PSA levels were measured by ELISA. Bioluminescence images were obtained weekly using the IVIS® Lumina (Perkin-Elmer). D-Luciferin, Firefly, potassium salt (150 mg/kg), (Gold Biotechnology Inc.) substrate was administered intraperitoneally prior to imaging. Images were acquired after 10 min with an image time of 60 s, medium binning, F/Stop=1. Images were quantified using the Living Image software (Perkin-Elmer).
# (§1) Tumours were fixed with 10% neutral buffered formalin and stored in 70% ethanol, then paraffin-embedded and cut into 5 µm consecutive sections. Samples were deparaffinised with xylene and […] with ethanol using standard protocols, with antigens retrieved by incubating samples in citrate buffer (pH 6) at 95 °C for 20 min. Samples were then incubated with 3% H2O2 in methanol for 30 min to remove endogenous peroxidases, then blocked with 10% goat serum in PBS for 30 min. Samples were then incubated overnight at 4 °C with a range of antibodies: Ki67 (Abcam, ab15580, 1:100), vimentin (1:333), CD31 (Abcam, ab28364, 1:50) and hGIIA (1:100) (Cayman Chemical, Ann Arbour, MI). TUNEL assay (Abcam) was also used to identify apoptosis. Samples were then washed, stained with Rabbit IHC secondary antibody (1:100) (Dako, Glostrup, Denmark) and counterstained with Gill's haematoxylin (1:5) (Dako). Samples were imaged using an M8 digital microscope (PreciPoint GmbH, Freising, Germany) and DAB staining was scored in a blind manner using ImageJ as described previously.
# [5] = tested on: LNCaP-luc xenograft tumours in castrated mice; experiment: Castrate-resistant model of PCa; assay type: in vivo, BALB/c nu/nu mice; details: cF 2 mg/kg po daily; p = 0.0419
# Source text: Mice (BALB/c nu/nu) carrying LNCaP-luc xenograft tumours ( > 65.5 mm^3) were surgically castrated 2.0 - 6.6 weeks post-tumour establishment. Treatment was commenced five weeks post-castration and the study terminated 10 weeks post-treatment commencement.
# [6] = tested on: PC-3M-luc xenograft tumours; experiment: Androgen-receptor independent xenograft model; assay type: in vivo, BALB/c nu/nu mice
# Protocol: Mice (BALB/c nu/nu) carrying luciferase-tagged PC-3M cells (PC-3M-luc) were each injected sc with 1 × 10^6 cells suspended in RPMI culture medium. […] Tumour volume and animal weights were measured twice weekly.
# as §1
# hGIIA = details: cited from earlier work
# [7] = tested on: fibroblast-like synoviocytes derived from patients with rheumatoid arthritis; details: cited from earlier work
# castrate-resistant PCa = tested on: castrate-resistant PCa; parameters: method as in PMID 15470213; details: cited from earlier work
# [8] = cited from earlier work
# T1 sequence (P08670 269-407 limits assumed): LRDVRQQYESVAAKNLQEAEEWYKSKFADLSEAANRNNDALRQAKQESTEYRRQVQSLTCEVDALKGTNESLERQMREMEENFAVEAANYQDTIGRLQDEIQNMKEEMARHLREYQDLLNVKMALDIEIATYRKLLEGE
smiles,measurement,setting,value
CCc1c(CC(N)=O)c2cc(OCCCP(=O)(O)O)ccc2n1Cc1ccccc1 [LY311727],inhibition of the hGIIA/vimentin interaction,[1],did not inhibit
"CC(C)C[C@@H]1NC(=O)[C@H](Cc2ccccc2)NC(=O)[C@H](CCCNC(=N)N)NC(=O)[C@H](Cc2ccc(O)cc2)NC(=O)[C@H](CO)NC1=O [cF, cyclo-(Phe-Leu Ser-Tyr-Arg)] (cyclo(FLSYR))",liver and kidney concentrations relative to c2,[2]; 5 mg/kg,~ 10 fold
same,plasma concentration relative to c2,"[2]; 5 mg/kg, sc or po",~ 10 fold
same,oral bioavailability (in words),[2]; sc and po administration,orally bioavailable
same,oral bioavailability relative to sc delivery (AUC analysis),"[2]; tritiated peptide 5 mg/kg, po vs sc, at 16 hours",~20%
same,"serum creatinine, aspartate aminotransferase, alanine aminotransferase, creatine kinase levels",[3]; 10 mg/kg po thrice weekly,no significant changes
same,damage to organs,[3]; 10 mg/kg thrice weekly for 10 weeks,no observable damage to organs
same,gross toxicity,[3]; max dosages of 10 mg/kg thrice weekly for 10 weeks,No gross toxicity
same,tumour volume,"[4]; ten weeks, p = 0.0229",significant suppression
same,PSA levels,[4]; p = 0.0158,significantly reduced
same,tumour weight,[4]; p = 0.0235,significant suppression
same,luciferase signal,[4]; p = 0.0284,reduced
same,relative tumour volume from time 0 at 10 weeks,[5],significantly reduced
same,increase of TUNEL signal,[6]; cF,not seen
same,proliferative marker Ki67 relative to control,[6]; cF,significant increase
same,growth of tumours relative to vehicle controls,"[6]; cF 5 mg/kg daily po, p < 0.05",significantly slowed the growth of tumours
same,animals surviving until study termination at 6 months,[6]; cF daily,13%
same,"potency in the inhibition of hGIIA catalytic activity, less than other hGIIA inhibitors",hGIIA,~ 1000 fold
same,synthesis of exogenous hGIIA-mediated prostaglandin (PG),[7],suppress
CC(=O)O[C@@]12CO[C@@H]1C[C@H](O)[C@@]1(C)C(=O)[C@H](O)C3=C(C)[C@@H](OC(=O)[C@H](O)[C@@H](NC(=O)OC(C)(C)C)c4ccccc4)C[C@@](O)([C@@H](OC(=O)c4ccccc4)[C@H]21)C3(C)C [docetaxel],tumour response,castrate-resistant PCa,12%
CCc1c(C(=O)C(N)=O)c2c(OCC(=O)O)cccc2n1Cc1ccccc1 [varespladib],"patients with ALT raised three-fold over the normal range, varespladib vs placebo",[8],6.3 fold
CC1=C(CO)C(=O)O[C@@H]([C@@H](C)[C@H]2CC[C@H]3[C@@H]4C[C@H]5O[C@]56[C@@H](O)C=CC(=O)[C@]6(C)[C@H]4CC[C@]23C)C1 [withaferin A],inhibition of the hGIIA/vimentin interaction,[1],did not inhibit
